Publication PMC3573960 (Molecular Neurodegeneration, 2012)

Experiment: MTS cytotoxicity assay in rat primary neocortical cultures
Format: cell-based
Conditions: CD, primary neocortical cultures from E17 rat embryos
Protocol: Primary cultures were established from the neocortex of E17 rat embryos obtained from timed pregnant CD rats (Charles River Laboratories, Wilmington, MA). Following tissue dissection and trituration, the cultures were suspended in Neurobasal™ medium (Invitrogen) supplemented with 10% horse serum (Sigma-Aldrich) and 520 μM L-glutamine. Cells were plated at 50,000 cells/well in Costar 96-well poly-D-lysine-coated plates. Following incubation at 37°C and 5% CO2 for 4–5 h, the plating medium was exchanged with Neurobasal® medium with 2% B-27® supplement (Invitrogen), 520 μM of L-glutamine, and 1% penicillin-streptomycin. […] Cultures were incubated with compound for 24 h for analysis of Aβ peptides by sandwich ELISA and cytotoxicity by MTS assay.

O=C(O)[C@H](CC1CCC1)c1cc(Cl)c(OCC(F)(F)F)c(-c2ccc(C(F)(F)F)cc2)c1 [EVP-0015962, (R)-2-(5-chloro-6-(2,2,2-trifluoroethoxy)-4’-(trifluoromethyl)biphenyl-3-yl)-3-cyclobutylpropanoic acid]
IC50 at 24 h: > 30 µM
